EC50 data for seven molecules are collected here from ChEMBL document CHEMBL1152115, “Optically active fluorinated cyclobutane nucleoside analogs with potent anti-herpes activity” (1993).

Structures are written as SMILES.

Experiment [1] has as its system Human alphaherpesvirus 3. The experiment can be described thus: Effective dose required to inhibit cell growth against VZV (Ellen). The format is functional. To be noted: read-out: ED50 (the source's name).
Experiment [2] deals with Human betaherpesvirus 5. The experiment can be described thus: Effective dose required to inhibit cell growth against HCMV (AD169). The format is functional. To be noted: read-out: ED50 (the source's name).
Experiment [3] deals with Human alphaherpesvirus 1. The experiment can be described thus: Effective dose required to inhibit cell growth against HSV-1 (schooler). It counts as functional. To be noted: read-out: ED50 (the source's name).
Experiment [4] concerns Human alphaherpesvirus 2. Briefly: Effective dose required to inhibit cell growth against HSV-2 (186). To be noted: read-out: ED50 (the source's name). It counts as functional.
Experiment [5] has as its system Human alphaherpesvirus 3. Briefly: Effective dose required to inhibit cell growth against VZV (Ellen); Value ranges from 25-63. It counts as functional. To be noted: read-out: ED50 (the source's name).
For experiment [6], the system named is Human alphaherpesvirus 3. The experiment can be described thus: Effective dose required to inhibit cell growth against VZV (Ellen); Value ranges from 88-177. The format is functional. To be noted: read-out: ED50 (the source's name).
Experiment [7] has as its system Human alphaherpesvirus 2. Briefly: Effective dose required to inhibit cell growth against HSV-2 (186); Value ranges from 88-176. The format is functional. To be noted: read-out: ED50 (the source's name).
Experiment [8] relates to Human betaherpesvirus 5. Briefly: Effective dose required to inhibit cell growth against HCMV (AD169); Value ranges from 3.5-35. It counts as functional. To be noted: read-out: ED50 (the source's name).
Experiment [9] concerns Human alphaherpesvirus 3. The experiment can be described thus: Effective dose required to inhibit cell growth against VZV (Ellen); Value ranges from 1.8-3.5. The format is functional. To be noted: read-out: ED50 (the source's name).
The subject of experiment [10] is Human alphaherpesvirus 1. The experiment can be described thus: Effective dose required to inhibit cell growth against HSV-1 (schooler); Value ranges from 0.7-1.8. It counts as functional. To be noted: read-out: ED50 (the source's name).
The test system of experiment [11] is Human alphaherpesvirus 3. Briefly: Effective dose required to inhibit cell growth against VZV (Ellen); Value ranges from 0.7-1.7. It counts as functional. To be noted: read-out: ED50 (the source's name).
Experiment [12] has as its system Human betaherpesvirus 5. Briefly: Effective dose required to inhibit cell growth against HCMV (AD169); Value ranges from 18-35. It counts as functional. To be noted: read-out: ED50 (the source's name).
The test system of experiment [13] is Human alphaherpesvirus 1. The experiment can be described thus: Effective dose required to inhibit cell growth against HSV-1 (schooler); Value ranges from 0.7-1.7. It counts as functional. To be noted: read-out: ED50 (the source's name).
Experiment [14] concerns Human alphaherpesvirus 2. Briefly: Effective dose required to inhibit cell growth against HSV-2 (186); Value ranges from 0.3-0.7. It counts as functional. To be noted: read-out: ED50 (the source's name).
Experiment [15] has as its system Human alphaherpesvirus 2. Briefly: microbe, parasite or virus in culture. To be noted: Human alphaherpesvirus 2, read-out: ED50.
Experiment [16] deals with Human alphaherpesvirus 1. Briefly: microbe, parasite or virus in culture. To be noted: Human alphaherpesvirus 1, read-out: ED50.
In experiment [17] the test system is Human betaherpesvirus 5. The experiment can be described thus: Effective dose required to inhibit cell growth against HCMV (AD169); Value ranges from 20-40. It counts as functional. To be noted: read-out: ED50 (the source's name).
Experiment [18] has as its system Human alphaherpesvirus 3. Briefly: microbe, parasite or virus in culture. To be noted: Human alphaherpesvirus 3, read-out: ED50.

Consider `Nc1ccn([C@@H]2C(F)C(CO)[C@@H]2CO)c(=O)n1` (stereo partly drawn), for which the EC50 was > 411 µM in the experiment with Human alphaherpesvirus 3 [1], > 411 µM in the experiment on Human betaherpesvirus 5 [2], > 411 µM in the experiment with Human alphaherpesvirus 1 [3] and ≥ 411 µM in the experiment with Human alphaherpesvirus 2 [4].

Take `O=c1[nH]c(=O)n([C@@H]2C(F)[C@H](CO)C2CO)cc1/C=C/I` (stereo partly drawn): the EC50 was 25 µM in the experiment on Human alphaherpesvirus 3 [5], > 252 µM in the experiment with Human betaherpesvirus 5 [2], > 252 µM in the experiment with Human alphaherpesvirus 1 [3] and > 252 µM in the experiment on Human alphaherpesvirus 2 [4].

Consider `Nc1nc(O)c2ncn([C@@H]3C(F)[C@H](CO)C3CO)c2n1` (stereo partly drawn), for which the EC50 with Human alphaherpesvirus 3 [6] was 88 µM; in the experiment on Human betaherpesvirus 5 [2], > 353 µM; in the experiment on Human alphaherpesvirus 2 [7] it was 88 µM; in the experiment with Human alphaherpesvirus 1 [3] it was 88 µM.

Consider `O=c1[nH]c(=O)n([C@@H]2C(F)[C@H](CO)C2CO)cc1/C=C/Br` (stereo partly drawn), for which the EC50 in the experiment with Human alphaherpesvirus 3 [1] was 286 µM; in the experiment with Human betaherpesvirus 5 [2] it was > 286 µM; in the experiment with Human alphaherpesvirus 1 [3], > 286 µM; in the experiment with Human alphaherpesvirus 2 [4] it was > 286 µM.

`Nc1nc(O)c2ncn([C@@H]3C(F)[C@H](CO)C3CO)c2n1` (mixture of isomers): the EC50 was found to be 3.5 µM in the experiment on Human betaherpesvirus 5 [8], 1.8 µM in the experiment with Human alphaherpesvirus 3 [9], 0.7 µM in the experiment with Human alphaherpesvirus 1 [10] and 0.7 µM in the experiment on Human alphaherpesvirus 2 [4].

On to `Nc1nc(O)c2ncn([C@@H]3C(F)[C@H](CO)C3CO)c2n1` (single isomer, unassigned; (-)), for which the EC50 in the experiment with Human alphaherpesvirus 3 [11] came to 0.7 µM; in the experiment on Human betaherpesvirus 5 [12], 18 µM; in the experiment with Human alphaherpesvirus 1 [13] it was 0.7 µM; in the experiment with Human alphaherpesvirus 2 [14] it was 0.3 µM.

`Nc1nc2c(ncn2COCCO)c(=O)[nH]1` [ACYCLOVIR]: the EC50 amounted to 0.4 µM in the experiment on Human alphaherpesvirus 2 [15], 0.2 µM in the experiment with Human alphaherpesvirus 1 [16], 20 µM in the experiment on Human betaherpesvirus 5 [17] and 2 µM in the experiment on Human alphaherpesvirus 3 [18].
